Where two headings read alike, the source gives them in different places. *1 amine or outer side, *2 acyl side, *3 side chain or, on linkers, in order; H or OH if unused. Where a SMILES comes first, the peptide text is derived from it. Bridges are numbered along the chain shown (N, C = ends). [ ]: non-standard residue; d: D form. The star is where a group is joined. X25 = O=C([C@H](Cc1ccc(C(F)(F)F)cc1)N(CCC(F)(F)F)[*:1])[*:2]; hPhe(3-Cl-4-CF3) = N[C@@H](CCc1ccc(C(F)(F)F)c(Cl)c1)C(=O)O; NMeGly(cPent) = CN[C@H](C(=O)O)C1CCCC1; NMeD = CN[C@@H](CC(=O)O)C(=O)O; NMeL = CN[C@@H](CC(C)C)C(=O)O; Morpholide = C1CN(*)CCO1; NMeA = CN[C@@H](C)C(=O)O; Ac5c = NC1(C(=O)O)CCCC1; Aze = O=C(O)[C@@H]1CCN1; Sar = CNCC(=O)O
How the values were obtained:
[1] = target: GDP-bound KRAS wild-type protein (Homo sapiens, UniProt P01116); test: Binding to KRAS by surface plasmon resonance (SPR), Single Cycle Kinetics; details: GDP-bound KRAS wild-type protein, read-out: KRAS KD
Chain of GDP-bound KRAS wild-type protein (P01116 whole entry): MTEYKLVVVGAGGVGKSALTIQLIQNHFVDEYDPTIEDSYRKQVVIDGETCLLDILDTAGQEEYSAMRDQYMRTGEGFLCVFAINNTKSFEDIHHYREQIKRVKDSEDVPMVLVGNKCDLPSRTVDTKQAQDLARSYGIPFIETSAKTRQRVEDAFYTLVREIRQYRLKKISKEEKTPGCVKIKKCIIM

[2] = target: GDP-bound NRAS wild-type protein (Homo sapiens, UniProt P01111); test: Binding to NRAS by surface plasmon resonance (SPR), Single Cycle Kinetics; details: for NRAS/KRAS (ratio of KD value for NRAS to KD value for KRAS): SPR, GDP-bound NRAS wild-type protein vs GDP-bound KRAS wild-type protein; for NRAS/KRAS (ratio of KD value with respect to GDP-bound NRAS wild-type protein to KD value with respect to KRAS): SPR KD ratio NRAS/KRAS, class symbols
Chain of GDP-bound NRAS wild-type protein (P01111 whole entry): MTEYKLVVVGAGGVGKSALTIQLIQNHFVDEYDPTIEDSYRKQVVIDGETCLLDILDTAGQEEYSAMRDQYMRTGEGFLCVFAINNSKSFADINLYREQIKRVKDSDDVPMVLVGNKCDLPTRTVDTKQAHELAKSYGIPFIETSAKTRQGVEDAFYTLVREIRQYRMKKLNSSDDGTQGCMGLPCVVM

[3] = target: GDP-bound HRAS wild-type protein (Homo sapiens, UniProt P01112); test: Binding to HRAS by surface plasmon resonance (SPR), Single Cycle Kinetics; details: for HRAS/KRAS (ratio of KD value for HRAS to KD value for KRAS): SPR, GDP-bound HRAS wild-type protein vs GDP-bound KRAS wild-type protein; for HRAS/KRAS (ratio of KD value with respect to GDP-bound HRAS wild-type protein to KD value with respect to KRAS): SPR KD ratio HRAS/KRAS, class symbols
Chain of GDP-bound HRAS wild-type protein (P01112 whole entry): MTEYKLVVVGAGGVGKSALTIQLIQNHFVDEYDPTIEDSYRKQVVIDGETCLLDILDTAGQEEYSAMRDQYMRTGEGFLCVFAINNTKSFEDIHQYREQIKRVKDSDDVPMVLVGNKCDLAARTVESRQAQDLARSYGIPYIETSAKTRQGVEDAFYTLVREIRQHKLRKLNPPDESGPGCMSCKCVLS

[4] = SPR Single Cycle Kinetics, 1:1 binding model

Row | SMILES | Kd [1, 4] [nM] | Kd ([1]; SPR, Single Cycle Kinetics) [nM] | NRAS/KRAS (ratio of KD value for NRAS to KD value for KRAS) [2] | HRAS/KRAS (ratio of KD value for HRAS to KD value for KRAS) [3] | NRAS/KRAS (ratio of KD value with respect to GDP-bound NRAS wild-type protein to KD value with respect to KRAS) [2] | HRAS/KRAS (ratio of KD value with respect to GDP-bound HRAS wild-type protein to KD value with respect to KRAS) [3]
1 | CC[C@H](C)[C@@H]1NC(=O)[C@H](CC(C)C)N(C)C(=O)C[C@@H](C(=O)N2CCOCC2)N(C)C(=O)[C@H](C2CCCC2)N(C)C(=O)C2(CCCC2)NC(=O)[C@@H]2CCCN2C(=O)[C@H](CCc2ccc(C(F)(F)F)c(Cl)c2)NC(=O)CN(C)C(=O)[C@H](Cc2ccc(C(F)(F)F)cc2)N(CCC(F)(F)F)C(=O)CN(C)C(=O)CN(C)C1=O [PP0131] ([NMeL]I[Sar][Sar][X25][Sar][hPhe(3-Cl-4-CF3)]P[Ac5c][NMeGly(cPent)][NMeD]-Morpholide; lactam N-11) | 0.14 | – | B (a compound having 3 or more and less than 10 is denoted as B) | C (A compound having a KD ratio of 0.1 or more and less than 3 is denoted as C) | – | –
2 | CCC[C@H]1C(=O)N[C@@H]([C@@H](C)CC)C(=O)N(C)CC(=O)N(C)[C@H]2C/C=C\CCN(C2=O)[C@@H](Cc2ccc(C)cc2)C(=O)N(C)CC(=O)N[C@@H](CCc2ccc3sc(C)c(C)c3c2)C(=O)N2C[C@H](OCC)C[C@H]2C(=O)NC2(CC(C)(C)C2)C(=O)N(C)[C@@H](C(CC)CC)C(=O)N(C)[C@H](C(=O)N(C)C)CC(=O)N1C [PP2902] | 0.71 | – | – | – | AA (a compound having 20 or more is denoted as AA) | A (a compound having 10 or more and less than 20 is denoted as A)
3 | CCC(CC)[C@H]1C(=O)N(C)[C@H](C(=O)N(C)C)CC(=O)N(C)[C@H]2CCC/C=C/c3ccc(cc3)C[C@@H](C(=O)N(C)CC(=O)N[C@@H](CCc3cc(F)c(C(F)(F)F)c(F)c3)C(=O)N3CCC[C@H]3C(=O)NC3(CC(C)(C)C3)C(=O)N1C)N1CC/C=C\C[C@@H](C1=O)N(C)C(=O)CN(C)C(=O)[C@H]([C@@H](C)CC)NC2=O [PP2600] | 0.17 | – | – | – | A (a compound having 10 or more and less than 20 is denoted as A) | A (a compound having 10 or more and less than 20 is denoted as A)

More lines, main results first:

Row | Kd [1, 4] [nM] | Kd ([1]; SPR, Single Cycle Kinetics) [nM] | SMILES | NRAS/KRAS (ratio of KD value for NRAS to KD value for KRAS) [2] | HRAS/KRAS (ratio of KD value for HRAS to KD value for KRAS) [3] | NRAS/KRAS (ratio of KD value with respect to GDP-bound NRAS wild-type protein to KD value with respect to KRAS) [2] | HRAS/KRAS (ratio of KD value with respect to GDP-bound HRAS wild-type protein to KD value with respect to KRAS) [3]
4 | – | 3.9 | CCO[C@@H]1C[C@H]2C(=O)NC3(CCC3)C(=O)N(C)[C@@H](C3CCCC3)C(=O)N(CC)[C@H](C(=O)N3CCOCC3)CC(=O)N(C)[C@@H](CC)C(=O)N[C@@H]([C@@H](C)CC)C(=O)N(C)CC(=O)N(C)[C@H]3CCCCCN(C3=O)[C@@H](Cc3ccc(C(F)(F)F)cc3)C(=O)N(C)CC(=O)N[C@@H](CCc3cc(F)c(C(F)(F)F)c(F)c3)C(=O)N2C1 [PP0944] | A (a compound having 10 or more and less than 20 is denoted as A) | A (a compound having 10 or more and less than 20 is denoted as A) | – | –
5 | 0.19 | – | CC[C@H](C)[C@@H]1NC(=O)[C@H](CC(C)C)N(C)C(=O)C[C@@H](C(=O)N2CCOCC2)N(C)C(=O)[C@H](C2CCCC2)N(C)C(=O)C2(CCCC2)NC(=O)[C@@H]2CCCN2C(=O)[C@H](CCc2ccc(C(F)(F)F)c(Cl)c2)NC(=O)CN(C)C(=O)[C@H](Cc2ccc(C(F)(F)F)cc2)N(CCC(F)(F)F)C(=O)[C@@H]2CCN2C(=O)[C@H](C)N(C)C1=O [PP0117] ([NMeL]I[NMeA][Aze][X25][Sar][hPhe(3-Cl-4-CF3)]P[Ac5c][NMeGly(cPent)][NMeD]-Morpholide; lactam N-11) | B (a compound having 3 or more and less than 10 is denoted as B) | B (a compound having 3 or more and less than 10 is denoted as B) | – | –
6 | – | 0.055 | CCO[C@@H]1C[C@H]2C(=O)NC3(CCC3)C(=O)N(C)[C@@H](C3CCCC3)C(=O)N(C)[C@H](C(=O)N(C)C)CC(=O)N(C)[C@@H](CC(C)C)C(=O)N[C@@H]([C@@H](C)CC)C(=O)N3CC[C@H]3C(=O)N(C)[C@H]3C[C@@H](C)CCN(C3=O)[C@@H](Cc3ccc(C(F)(F)F)cc3)C(=O)N(C)CC(=O)N[C@@H](CCc3cc(F)c(C(F)(F)F)c(F)c3)C(=O)N2C1 [PP1019] | C (A compound having a KD ratio of 0.1 or more and less than 3 is denoted as C) | B (a compound having 3 or more and less than 10 is denoted as B) | – | –

Reference: US20240158446A1, “CYCLIC COMPOUND HAVING SELECTIVE INHIBITORY ACTION ON KRAS OVER HRAS AND NRAS” (CHUGAI SEIYAKU KABUSHIKI KAISHA, priority 2021, published 2024)
